# Measured values as given in the supplement of paper PMC10307832.
# Tests used:
# Assay in all cases: relative viability (nuclei count vs DMSO), 5 days (fraction); higher = more cells survive
# AZD8055 + Navitoclax = compound: COc1ccc(-c2ccc3c(N4CCOC[C@@H]4C)nc(N4CCOC[C@@H]4C)nc3n2)cc1CO [AZD8055] + CC1(C)CCC(c2ccc(Cl)cc2)=C(CN2CCN(c3ccc(C(=O)NS(=O)(=O)c4ccc(N[C@H](CCN5CCOCC5)CSc5ccccc5)c(S(=O)(=O)C(F)(F)F)c4)cc3)CC2)C1 [Navitoclax] (partner 0.5 µM)
# How it was run: (§1)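 Relative viability is defined as nuclei in treated wells over nuclei in vehicle wells. Duplicate plates were run and medians reported. Lung cancer cell lines in 1536-well plates were dosed by pin tool one day after seeding, with one drug or with a fixed anchor-drug dose plus five library-drug doses (not always all listed) in √10 steps, and nuclei were counted after 5 days.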
# AZD8055 + Linsitinib = compound: COc1ccc(-c2ccc3c(N4CCOC[C@@H]4C)nc(N4CCOC[C@@H]4C)nc3n2)cc1CO [AZD8055] + C[C@]1(O)C[C@@H](c2nc(-c3ccc4ccc(-c5ccccc5)nc4c3)c3c(N)nccn32)C1 [Linsitinib] (partner 1 µM)
# How it was run: as §1
# AZD8055 + Foretinib = compound: COc1ccc(-c2ccc3c(N4CCOC[C@@H]4C)nc(N4CCOC[C@@H]4C)nc3n2)cc1CO [AZD8055] + COc1cc2c(Oc3ccc(NC(=O)C4(C(=O)Nc5ccc(F)cc5)CC4)cc3F)ccnc2cc1OCCCN1CCOCC1 [Foretinib] (partner 0.25 µM)
# How it was run: as §1
# AZD8055 + Luminespib = compound: COc1ccc(-c2ccc3c(N4CCOC[C@@H]4C)nc(N4CCOC[C@@H]4C)nc3n2)cc1CO [AZD8055] + CCNC(=O)c1noc(-c2cc(C(C)C)c(O)cc2O)c1-c1ccc(CN2CCOCC2)cc1 [Luminespib] (partner 0.01 µM)
# How it was run: as §1
Cell Line,relative viability (AZD8055 + Navitoclax; first compound 0.01 µM),relative viability (AZD8055 + Navitoclax; first compound 0.03162 µM),relative viability (AZD8055 + Navitoclax; first compound 0.1 µM),relative viability (AZD8055 + Navitoclax; first compound 0.3162 µM),relative viability (AZD8055 + Navitoclax; first compound 1 µM),relative viability (AZD8055 + Linsitinib; first compound 0.01 µM),relative viability (AZD8055 + Linsitinib; first compound 0.03162 µM),relative viability (AZD8055 + Linsitinib; first compound 0.1 µM),relative viability (AZD8055 + Linsitinib; first compound 0.3162 µM),relative viability (AZD8055 + Linsitinib; first compound 1 µM),relative viability (AZD8055 + Foretinib; first compound 0.01 µM),relative viability (AZD8055 + Foretinib; first compound 0.03162 µM),relative viability (AZD8055 + Foretinib; first compound 0.1 µM),relative viability (AZD8055 + Foretinib; first compound 0.3162 µM),relative viability (AZD8055 + Foretinib; first compound 1 µM),relative viability (AZD8055 + Luminespib; first compound 0.01 µM),relative viability (AZD8055 + Luminespib; first compound 0.03162 µM),relative viability (AZD8055 + Luminespib; first compound 0.1 µM),relative viability (AZD8055 + Luminespib; first compound 0.3162 µM),relative viability (AZD8055 + Luminespib; first compound 1 µM)
201T,1.22,1.23,1.21,1.03,0.819,0.997,0.906,0.758,0.609,0.554,1.34,1.08,0.892,0.391,0.328,0.979,1.01,0.814,0.421,0.42
A549,1.21,0.74,0.454,0.189,0.143,0.552,0.382,0.246,0.11,0.0862,0.929,0.831,0.638,0.123,0.0603,,,,,
A-427,0.987,0.837,0.598,0.376,0.315,1.13,0.95,0.927,0.783,0.547,0.954,0.983,0.856,0.491,0.416,1.3,0.832,0.817,0.482,0.581
ABC-1,,,,,,0.845,0.484,0.551,0.425,0.323,1.2,0.909,0.997,0.701,0.324,0.434,0.521,0.289,0.331,0.284
BEN,0.0642,0.064,0.0538,0.0837,0.0613,0.955,0.574,0.41,0.325,0.279,0.533,0.463,0.389,0.284,0.284,0.242,0.179,0.305,0.216,0.192
CAL-12T,1.25,1.24,0.838,0.35,0.23,0.84,0.658,0.465,0.211,0.258,1.25,1.22,1.01,0.414,0.279,0.321,0.203,0.131,0.152,0.139
COR-L23,1.01,0.732,0.468,0.229,0.172,0.977,0.578,0.392,0.152,0.14,1.24,0.893,0.822,0.353,0.233,0.773,0.625,0.381,0.118,0.137
COR-L 105,0.914,0.961,0.596,0.358,0.39,0.833,0.941,0.5,0.315,0.297,1.55,1.03,1.31,0.756,0.476,0.733,0.912,0.349,0.3,0.268
Calu-6,0.886,0.792,0.621,0.32,0.313,1.09,0.77,0.637,0.356,0.329,0.878,0.839,0.691,0.439,0.346,,,,,
ChaGo-K-1,1.09,1.08,1.3,0.655,0.44,,,,,,1.07,0.862,0.81,0.61,0.621,0.611,0.604,0.533,0.423,0.297
EKVX,1.08,1.04,0.797,0.512,0.413,1.05,0.947,0.604,0.384,0.24,0.872,1.25,0.731,0.702,0.367,0.949,0.866,0.655,0.355,0.248
EMC-BAC-2,1.22,1.13,1.05,0.446,0.37,0.784,0.65,0.53,0.337,0.3,0.965,0.846,0.809,0.393,0.347,1.18,1.05,0.867,0.534,0.403
EPLC-272H,1.1,0.842,0.556,0.378,0.35,1.1,0.926,0.669,0.404,0.373,0.537,0.418,0.378,0.274,0.21,0.182,0.12,0.178,0.22,0.182
H3255,0.54,0.443,0.324,0.176,0.172,0.925,0.858,0.63,0.468,0.277,0.562,0.769,0.786,0.418,0.308,0.879,0.804,0.845,0.382,0.381
HARA,1.16,1.13,0.935,0.738,0.393,0.942,0.998,0.517,0.303,0.202,0.983,0.762,0.374,0.272,0.258,1.44,0.584,0.393,0.112,0.12
HCC-15,0.782,0.591,0.561,0.38,0.293,0.778,0.808,0.644,0.467,0.29,1.05,0.969,0.755,0.537,0.445,0.304,0.39,0.262,0.208,0.242
HCC-44,0.985,0.891,0.617,0.41,0.448,0.565,0.506,0.298,0.198,0.226,,,,,,1.03,0.974,0.804,0.439,0.429
